The values below come from article PMC11240257, “Engineered Methionine Adenosyltransferase Cascades for Metabolic Labeling of Individual DNA Methylomes in Live Cells” (Journal of the American Chemical Society, 2024).

Experiment in all cases: HPLC-MS/MS quantitation of accumulated cofactor, steady state
Assay type in all cases: biochemical
Holding throughout (conditions): co-substrate ATP

In assay [1] the target is T1, mouse MAT2A (Mus musculus, UniProt Q3THS6).
T1 construct: recombinant, produced in vitro from bacterial cells; monogenic multimer without MAT2B
The text has this:
(§1) HPLC-MS/MS quantitation of accumulated cofactor, steady state on mouse MAT2A

Assay [2] has as its target T2, mouse MAT2A (Mus musculus, UniProt Q3THS6, Q113N/I117A).
T2 construct: recombinant, produced in vitro from bacterial cells; monogenic multimer without MAT2B
Excerpt: as §1

Assay [3] has as its target T3, mouse MAT2A (Mus musculus, UniProt Q3THS6, S114A/I117A).
T3 construct: recombinant, produced in vitro from bacterial cells; monogenic multimer without MAT2B
Excerpt: as §1

For assay [4], the target named is T4, mouse MAT2A (Mus musculus, UniProt Q3THS6, I117A).
T4 construct: recombinant, produced in vitro from bacterial cells; monogenic multimer without MAT2B
Excerpt: as §1

Read-outs that look alike come from different tables or passages of the source.

T1 sequence (Q3THS6 whole entry): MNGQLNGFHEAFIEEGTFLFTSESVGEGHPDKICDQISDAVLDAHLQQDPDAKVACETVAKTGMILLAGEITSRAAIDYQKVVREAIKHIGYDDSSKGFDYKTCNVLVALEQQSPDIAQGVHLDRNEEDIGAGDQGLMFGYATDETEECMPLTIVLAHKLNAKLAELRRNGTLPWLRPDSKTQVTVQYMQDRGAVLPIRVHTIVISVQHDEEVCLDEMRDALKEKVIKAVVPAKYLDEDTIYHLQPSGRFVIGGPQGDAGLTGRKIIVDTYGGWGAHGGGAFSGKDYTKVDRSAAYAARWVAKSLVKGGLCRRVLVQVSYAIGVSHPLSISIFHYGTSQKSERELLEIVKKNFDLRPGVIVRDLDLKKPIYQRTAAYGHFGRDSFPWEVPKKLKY
T2 sequence (Q3THS6 whole entry Q113N/I117A): as the sequence (Q3THS6 whole entry) above, with Q113N, I117A counted along it
T3 sequence (Q3THS6 whole entry S114A/I117A): as the sequence (Q3THS6 whole entry) above, with S114A, I117A counted along it
T4 sequence (Q3THS6 whole entry I117A): as the sequence (Q3THS6 whole entry) above, with I117A counted along it

For `CSCC[C@H](N)C(=O)O` [Met, L-methionine], the Km at mouse MAT2A [1] (read-out: Km /) was determined as 0.02 ± 0.003 mM; on mouse MAT2A [2] (read-out: Km /), 1.4 ± 0.56 mM; on mouse MAT2A [3] (read-out: Km /) it was 1.4 ± 0.41 mM; at mouse MAT2A [4] (read-out: Km /), 0.645 ± 0.023 mM.
Take `[N-]=[N+]=NCCCC#CCSCC[C@H](N)C(=O)O` [N3-Met, S-(6-azidohex-2-yn-1-yl)-L-homocysteine]: the Km at mouse MAT2A [1] (read-out: Km / mM) is 1.03 ± 0.23 mM; on mouse MAT2A [2] (read-out: Km / mM), 1.44 ± 0.27 mM; on mouse MAT2A [3] (read-out: Km / mM), 1.52 ± 0.043 mM; on mouse MAT2A [4] (read-out: Km / mM), 0.92 ± 0.1 mM.
